The target of one test is T1, IKZF1 (Homo sapiens, UniProt Q13422+Q96SW2).
T1 construct: expressed in transfected cells
As to the kind of experiment: HiBiT protein tagging assay, in vitro IKZF1 degradation (HEK293). Type of test: cell-based. The settings on record: HEK293, 18-24 hr incubation, normalized to DMSO control; for Dmax: read-out: IKZF1 Dmax (maximum degradation at the highest concentration tested); for DC50: read-out: IKZF1 EC50. The gist of the method: (§1)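 Flp-In T-REx HEK293 pools stably expressing C-terminal HiBiT-tagged IKZF1 or IKZF2 were induced overnight with 1 μg/ml doxycycline. Cells were then treated with serially diluted compound for 18-24 hr at 37 °C and read by Nano-Glo lytic luminescence. Data were normalized to 0.5% DMSO as POC; EC50 and Dmax (maximum degradation at highest concentration tested) reported.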

The target in a further test is T2, IKZF2 (Homo sapiens, UniProt Q96SW2+Q9UKS7).
T2 construct: expressed in transfected cells
As to the kind of experiment: HiBiT protein tagging assay, in vitro IKZF2 degradation (HEK293). Type of test: cell-based. The settings on record: HEK293, 18-24 hr incubation, normalized to DMSO control; for Dmax: HEK293, HiBiT assay, read-out: IKZF2 Dmax (maximum degradation at the highest concentration tested); for DC50: HiBiT assay, read-out: IKZF2 EC50. In a few lines:
as §1

Results on 26 compounds are retold here after patent publication US20240124412A1, “IKAROS ZINC FINGER FAMILY DEGRADERS AND USES THEREOF” (Gilead Sciences, Inc., priority 2021, published 2024).

T1 sequence (Q13422 whole entry): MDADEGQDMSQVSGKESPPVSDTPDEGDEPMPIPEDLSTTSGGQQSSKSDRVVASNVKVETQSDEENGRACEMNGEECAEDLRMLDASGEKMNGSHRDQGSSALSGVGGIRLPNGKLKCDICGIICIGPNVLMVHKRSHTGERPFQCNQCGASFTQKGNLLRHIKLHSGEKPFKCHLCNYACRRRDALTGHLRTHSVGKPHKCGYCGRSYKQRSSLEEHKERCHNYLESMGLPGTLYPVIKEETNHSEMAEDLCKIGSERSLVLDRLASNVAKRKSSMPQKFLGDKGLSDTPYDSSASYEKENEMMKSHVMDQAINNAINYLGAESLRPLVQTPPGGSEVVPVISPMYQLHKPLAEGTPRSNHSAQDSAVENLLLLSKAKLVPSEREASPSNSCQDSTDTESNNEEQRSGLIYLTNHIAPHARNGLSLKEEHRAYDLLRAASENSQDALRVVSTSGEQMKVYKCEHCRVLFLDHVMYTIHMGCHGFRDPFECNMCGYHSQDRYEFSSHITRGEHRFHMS
T1 sequence (Q96SW2 whole entry): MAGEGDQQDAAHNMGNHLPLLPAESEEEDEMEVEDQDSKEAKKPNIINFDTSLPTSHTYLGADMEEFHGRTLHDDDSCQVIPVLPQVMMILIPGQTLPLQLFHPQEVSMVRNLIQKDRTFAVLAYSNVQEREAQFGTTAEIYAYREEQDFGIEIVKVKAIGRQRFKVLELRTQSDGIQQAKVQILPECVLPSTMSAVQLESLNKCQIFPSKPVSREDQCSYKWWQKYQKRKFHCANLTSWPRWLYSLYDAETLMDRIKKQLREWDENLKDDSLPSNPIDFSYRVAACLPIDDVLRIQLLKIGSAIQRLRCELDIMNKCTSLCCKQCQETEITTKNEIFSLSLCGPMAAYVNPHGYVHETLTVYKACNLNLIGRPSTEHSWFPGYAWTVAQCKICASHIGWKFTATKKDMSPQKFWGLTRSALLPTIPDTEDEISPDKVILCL
T1 sequence (Q16531 whole entry partner): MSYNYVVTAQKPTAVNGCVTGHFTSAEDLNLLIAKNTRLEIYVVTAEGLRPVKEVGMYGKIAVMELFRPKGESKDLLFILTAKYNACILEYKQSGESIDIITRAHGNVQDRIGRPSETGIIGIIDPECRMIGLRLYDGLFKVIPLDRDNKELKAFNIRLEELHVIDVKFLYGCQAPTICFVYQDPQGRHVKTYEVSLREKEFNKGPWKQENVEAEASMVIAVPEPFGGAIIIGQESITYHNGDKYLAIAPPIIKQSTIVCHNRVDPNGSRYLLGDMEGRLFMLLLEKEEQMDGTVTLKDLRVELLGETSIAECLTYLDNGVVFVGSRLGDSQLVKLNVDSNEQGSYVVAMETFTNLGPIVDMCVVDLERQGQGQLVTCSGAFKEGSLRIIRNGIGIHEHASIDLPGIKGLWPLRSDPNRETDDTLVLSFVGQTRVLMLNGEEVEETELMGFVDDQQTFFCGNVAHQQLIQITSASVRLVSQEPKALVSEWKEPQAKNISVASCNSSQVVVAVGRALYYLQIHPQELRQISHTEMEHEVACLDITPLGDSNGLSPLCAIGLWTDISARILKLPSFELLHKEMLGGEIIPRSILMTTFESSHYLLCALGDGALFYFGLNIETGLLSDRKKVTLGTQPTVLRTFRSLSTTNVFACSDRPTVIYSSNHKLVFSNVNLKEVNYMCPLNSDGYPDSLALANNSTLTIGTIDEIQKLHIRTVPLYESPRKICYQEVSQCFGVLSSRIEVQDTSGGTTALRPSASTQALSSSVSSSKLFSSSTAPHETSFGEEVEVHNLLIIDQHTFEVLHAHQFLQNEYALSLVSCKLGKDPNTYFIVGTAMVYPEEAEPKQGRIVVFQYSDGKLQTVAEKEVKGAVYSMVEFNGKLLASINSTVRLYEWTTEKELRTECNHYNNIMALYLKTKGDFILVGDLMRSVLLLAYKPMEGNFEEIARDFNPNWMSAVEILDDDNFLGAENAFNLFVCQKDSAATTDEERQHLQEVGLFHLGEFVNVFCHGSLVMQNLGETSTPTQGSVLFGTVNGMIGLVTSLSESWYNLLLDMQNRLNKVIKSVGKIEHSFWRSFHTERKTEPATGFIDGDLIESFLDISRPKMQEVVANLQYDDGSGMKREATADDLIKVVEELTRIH
T2 sequence (Q9UKS7 1-500 isoform Q9UKS7-2): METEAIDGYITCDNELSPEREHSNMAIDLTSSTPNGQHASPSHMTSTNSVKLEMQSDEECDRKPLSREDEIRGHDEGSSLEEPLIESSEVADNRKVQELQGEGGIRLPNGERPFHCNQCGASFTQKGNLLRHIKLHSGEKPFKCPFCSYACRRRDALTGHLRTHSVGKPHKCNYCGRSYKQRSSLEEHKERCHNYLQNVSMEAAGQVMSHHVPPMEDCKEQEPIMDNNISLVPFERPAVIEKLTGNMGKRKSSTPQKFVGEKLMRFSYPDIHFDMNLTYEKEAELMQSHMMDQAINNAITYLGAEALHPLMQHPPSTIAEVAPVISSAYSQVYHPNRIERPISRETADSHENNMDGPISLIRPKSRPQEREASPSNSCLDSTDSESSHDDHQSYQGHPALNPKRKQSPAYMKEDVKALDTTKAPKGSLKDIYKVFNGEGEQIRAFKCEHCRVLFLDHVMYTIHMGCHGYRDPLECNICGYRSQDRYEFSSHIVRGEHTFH
T2 sequence (Q96SW2 whole entry): as the sequence (Q96SW2 whole entry) above
T2 sequence (Q16531 whole entry partner): as the sequence (Q16531 whole entry partner) above

`O=C1CCC(N2Cc3cc(CN[C@@H]4CCCC[C@@H]4Cc4ccccc4)ccc3C2=O)C(=O)N1` (stereo partly drawn) [Example 68]: the Dmax on IKZF1 and at IKZF2 was 68% throughout. The figures for the DC50 at IKZF1 and at IKZF2 were 70 nM and 154 nM, respectively.
Take `O=C1CCC(N2Cc3cc(CNC4CCC(Cc5ccccc5)C4)ccc3C2=O)C(=O)N1` (stereo not drawn) [Example 69]: at IKZF1, the Dmax was 57% and the DC50 came to 66 nM. Besides, at IKZF2, the Dmax is 68% and the DC50 worked out at 113 nM.
The like results for `O=C1CCC(N2Cc3cc(CNC4CCc5cccnc5C4)ccc3C2=O)C(=O)N1` (stereo not drawn) [Example 70, 3-(1-oxo-5-(((5,6,7,8-tetrahydroquinolin-7-yl)amino)methyl)isoindolin-2-yl)piperidine-2,6-dione] were, in that order, 42%, 89 nM, 67% and 303 nM.
With `O=C1CCC(N2Cc3cc(CN[C@@H]4C[C@@H]5CC[C@H]4C5)ccc3C2=O)C(=O)N1` (stereo partly drawn) [Example 71, 3-(5-((((1S,2R,4R)-bicyclo[2.2.1]heptan-2-yl)amino)methyl)-1-oxoisoindolin-2-yl)piperidine-2,6-dione], the Dmax turned out to be 33% on IKZF1 and 36% at IKZF2. Moreover, the results for the DC50 on IKZF1 and at IKZF2 were 170 nM and 297 nM, respectively.
On to `O=C1CCC(N2Cc3cc(CN[C@H]4C[C@H]5CC[C@@H]4C5)ccc3C2=O)C(=O)N1` (stereo partly drawn) [Example 72], for which the DC50 at IKZF1 is more than 10000 nM. For the same compound, at IKZF2, the Dmax is 23% and the DC50 stood at 389 nM.
Turning to `O=C1CCC(N2Cc3cc(CN[C@@H]4CCCC[C@H]4CO)ccc3C2=O)C(=O)N1` (stereo partly drawn) [Example 73, 3-(5-((((1R,2R)-2-(hydroxymethyl)cyclohexyl)amino)methyl)-1-oxoisoindolin-2-yl)piperidine-2,6-dione], on IKZF1, the Dmax is 34% and the DC50 was 5800 nM. Moreover, at IKZF2, the Dmax is 31% and the DC50 was found to be 1200 nM.
For `O=C1CCC(N2Cc3cc(CNC4CC5CC(C5)C4)ccc3C2=O)C(=O)N1` (stereo not drawn) [Example 74], at IKZF1, the Dmax turned out to be 53% and the DC50 stood at 52 nM. Moreover, at IKZF2, the Dmax was 82% and the DC50 came out at 48 nM.
In the case of `CCCO[C@H]1CC[C@H](NCc2ccc3c(c2)CN(C2CCC(=O)NC2=O)C3=O)CC1` (stereo partly drawn) [Example 75], at IKZF1, the Dmax was determined as 49% and the DC50 was found to be 127 nM. Besides, on IKZF2, the Dmax is 90% and the DC50 was determined as 100 nM.
For `CO[C@H]1CC[C@H](NCc2ccc3c(c2)CN(C2CCC(=O)NC2=O)C3=O)CC1` (stereo partly drawn) [Example 76], in that order: 51%, 184 nM, 90% and 144 nM.
For `O=C1CCC(N2Cc3cc(CN[C@H]4CC[C@H](C(F)(F)F)CC4)ccc3C2=O)C(=O)N1` (stereo partly drawn) [Example 77], in that order: 59%, 144 nM, 74% and 171 nM.
As for `C[C@H]1CCCC[C@H]1NCc1ccc2c(c1)CN(C1CCC(=O)NC1=O)C2=O` (stereo partly drawn) [Example 78], on IKZF1, the Dmax is 30% and the DC50 was 1700 nM. Also, at IKZF2, the Dmax was found to be 81% and the DC50 is 115 nM.
Turning to `CCCC[C@H]1CC[C@H](NCc2ccc3c(c2)CN(C2CCC(=O)NC2=O)C3=O)CC1` (stereo partly drawn) [Example 79], the figures for the Dmax on IKZF1 and on IKZF2 were 30% and 69%, respectively. Besides, the DC50 was 169 nM at IKZF1 and 218 nM on IKZF2.
In the case of `N#C[C@H]1CC[C@H](NCc2ccc3c(c2)CN(C2CCC(=O)NC2=O)C3=O)CC1` (stereo partly drawn) [Example 80], on IKZF1, the Dmax came out at 57% and the DC50 came out at 253 nM. For the same compound, at IKZF2, the Dmax is 92% and the DC50 turned out to be 166 nM.
For `O=C1CCC(N2Cc3cc(CN[C@H]4CCC[C@@H](O)C4)ccc3C2=O)C(=O)N1` (stereo partly drawn) [Example 81], at IKZF1, the Dmax worked out at 45% and the DC50 was 762 nM. On IKZF2, the Dmax was determined as 67% and the DC50 was 1300 nM.
Turning to `O=C1CCC(N2Cc3cc(CN[C@@H]4CCC[C@H](O)C4)ccc3C2=O)C(=O)N1` (stereo partly drawn) [Example 82], the DC50 on IKZF1 is more than 10000 nM. At IKZF2, the Dmax stood at 71% and the DC50 was found to be 1300 nM.
Take `O=C1CCC(N2Cc3cc(CNC4CCC5(CCCCC5)CC4)ccc3C2=O)C(=O)N1` (stereo not drawn) [Example 83]: on IKZF1, the Dmax is 42% and the DC50 was 84 nM. Besides, on IKZF2, the Dmax was 69% and the DC50 amounted to 106 nM.
The like results for `O=C1CCC(N2Cc3cc(CNC4CCC5(CCCC5)CC4)ccc3C2=O)C(=O)N1` (stereo not drawn) [Example 84] were, in that order, 55%, 64 nM, 79% and 46 nM.
As to `O=C1CCC(N2Cc3cc(CN[C@H]4CC[C@@H](C(F)(F)F)CC4)ccc3C2=O)C(=O)N1` (stereo partly drawn) [Example 85], at IKZF1, the Dmax was 44% and the DC50 worked out at 117 nM. Moreover, at IKZF2, the Dmax is 81% and the DC50 turned out to be 114 nM.
For `CO[C@H]1CC[C@@H](NCc2ccc3c(c2)CN(C2CCC(=O)NC2=O)C3=O)CC1` (stereo partly drawn) [Example 86], in that order: 73%, 70 nM, 83% and 123 nM.
For `N#C[C@H]1CC[C@@H](NCc2ccc3c(c2)CN(C2CCC(=O)NC2=O)C3=O)CC1` (stereo partly drawn) [Example 87], in that order: 86%, 84 nM, 89% and 182 nM.
For `O=C1CCC(N2Cc3cc(CNC4CCC5(CCOCC5)CC4)ccc3C2=O)C(=O)N1` (stereo not drawn) [Example 88], in that order: 64%, 297 nM, 91% and 296 nM.
As to `C[C@H]1CC[C@@H](NCc2ccc3c(c2)CN(C2CCC(=O)NC2=O)C3=O)CC1` (stereo partly drawn) [Example 89], on IKZF1, the Dmax turned out to be 42% and the DC50 stood at 127 nM. For the same compound, at IKZF2, the Dmax amounted to 76% and the DC50 was 139 nM.
For `O=C1CCC(N2Cc3cc(CN[C@@H]4CCC[C@H](Nc5ccccc5)C4)ccc3C2=O)C(=O)N1` (stereo partly drawn) [Example 90], the values for the Dmax on IKZF1 and on IKZF2 were 88% and 92%, respectively. For the same compound, the DC50 turned out to be 30 nM on IKZF1 and 95 nM on IKZF2.
The like results for `O=C1CCC(N2Cc3cc(CN[C@H]4CCC[C@@H](Nc5ccccc5)C4)ccc3C2=O)C(=O)N1` (stereo partly drawn) [Example 91] were, in that order, 63%, 73%, 116 nM and 333 nM.
The like results for `O=C1CCC(N2Cc3cc(CN[C@@H]4CCC[C@H](Oc5ccccc5)C4)ccc3C2=O)C(=O)N1` (stereo partly drawn) [Example 92] were, in that order, 61%, 85%, 16 nM and 41 nM.
For the compound `N#CC1CCCC(NCc2ccc3c(c2)CN(C2CCC(=O)NC2=O)C3=O)C1` (stereo not drawn) [Example 93, (1,3-trans)-3-(((2-(2,6-dioxopiperidin-3-yl)-1-oxoisoindolin-5-yl)methyl)amino)cyclohexane-1-carbonitrile], on IKZF1, the Dmax stood at 29% and the DC50 was 252 nM. Moreover, at IKZF2, the Dmax turned out to be 59% and the DC50 was determined as 26 nM.
